Measured values taken from patent US20080027088A1, “Imidazole-Based Hmg-Coa Reductase Inhibitors” (Warner-Lambert Company, LLC, priority 2004, published 2008).

Key:
[1] = tested on: ApoE KO mice fed a Western diet; experiment: Plasma total cholesterol and triglyceride, 4 weeks myriocin diet admix; format: in vivo
Protocol: Animal experiments—Male C57BI/6J and ApoE KO mice on C57BI/6J background were obtained from the Jackson Laboratory (Bar Harbor, Me.) or Taconic (Germantown, N.Y.) (Plaque formation in ApoE KO mice is lipid-driven (A. S. Plump et al., Cell. 1992;71 (2):343-53)). Myriocin was mixed with Western diet containing 0.21% cholesterol and 21% fat. 8-12-week-old mice received 0.3 mg myriocin/kg/day for 12 weeks (Table 1). 10-12 week-old ApoE KO mice (n=8) were pre-fed a western diet for 2 weeks and mice received various concentrations of myriocin for 4 weeks in diet admix. Control groups consisted of ApoE KO mice fed normal chow or Western diet without myriocin, and normal chow-fed C57BI/6J mice. Body weight and chow feeding was measured every week to examine the food consumption. For the femoral artery cuff model, 8-10 week-old male ApoE KO mice were anethetized and the right femoral artery was dissected from its surroundings. A nonconstrictive polyethylene cuff (Portex, 0.40-mm inner diameter, 0.80-mm outer diameter, and 1.5-mm length) was placed looselyaround the right femoral artery.
Plasma lipids and serum amyloid A measurement—Mice were sacrificed by CO2 inhalation and blood was collected through cardiac puncture. Plasma concentrations of total cholesterol and triglyceride were determined enzymatically on a Cobas Mira Plus auto-analyzer using Cholesterol R1 and Triglycerides Reagent methods, respectively (Roche Diagnostics, Indiana, USA). Colormetric changes were measured at 500 nm. Lipoproteins were separated from mouse plasma by fast-protein liquid chromatography utilizing a Superose 6HR column. Cholesterol distribution among lipoproteins was determined by in-line post column analysis (K. A. Kieft, T. M. Bocan and B. R. Krause, J. Lipid Res. 1991; 32:859-66). Serum Amyloid A (SAA) protein in plasma was measured by ELISA according to the manufacturer's instructions (Biosource).
FIG. 3. Plasma Cholesterol and Triglycerides in ApoE KO Mice Fed a Western Diet. After 4 weeks of diet admix myriocin treatment, mice were sacrificed and plasma was isolated. Plasma concentrations of total cholesterol (A) and triglyceride (B) were determined enzymatically on a Cobas Mira Plus auto-analyzer using Cholesterol R1 and Triglycerides Reagent methods, respectively. Colormetric changes were measured at 500 nm. The values reported are mean±SEM (n=8, *P<0.01).

[2] = target: T1, serine palmitoyltransferase (SPT) (Mus musculus, UniProt O35704+P97363); experiment: SPT activity of liver cell-free homogenate (14C-serine, palmitoyl CoA, TLC); format: in vivo, mice; settings: 0.3 mg/kg/day, 12 weeks
T1 construct: from tissue; host or cells: mouse liver (ApoE KO and C57Bl/6J mice), cell-free homogenate
T1 sequence (P97363 1-560): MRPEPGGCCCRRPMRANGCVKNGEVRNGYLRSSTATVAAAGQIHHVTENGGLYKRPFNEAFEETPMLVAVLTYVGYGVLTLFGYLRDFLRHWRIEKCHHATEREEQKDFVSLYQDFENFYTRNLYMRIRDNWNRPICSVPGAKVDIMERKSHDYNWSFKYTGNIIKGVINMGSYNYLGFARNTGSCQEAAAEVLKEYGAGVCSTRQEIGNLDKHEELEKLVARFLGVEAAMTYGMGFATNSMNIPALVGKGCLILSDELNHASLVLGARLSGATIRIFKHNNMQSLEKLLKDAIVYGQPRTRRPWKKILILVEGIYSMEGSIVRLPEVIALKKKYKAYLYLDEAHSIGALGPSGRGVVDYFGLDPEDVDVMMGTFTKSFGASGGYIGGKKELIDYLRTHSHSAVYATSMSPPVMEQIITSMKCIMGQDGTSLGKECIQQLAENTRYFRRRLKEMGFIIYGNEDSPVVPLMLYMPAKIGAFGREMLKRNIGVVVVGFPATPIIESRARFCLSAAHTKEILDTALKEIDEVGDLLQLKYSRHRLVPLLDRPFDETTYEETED
T1 sequence (O35704 1-473): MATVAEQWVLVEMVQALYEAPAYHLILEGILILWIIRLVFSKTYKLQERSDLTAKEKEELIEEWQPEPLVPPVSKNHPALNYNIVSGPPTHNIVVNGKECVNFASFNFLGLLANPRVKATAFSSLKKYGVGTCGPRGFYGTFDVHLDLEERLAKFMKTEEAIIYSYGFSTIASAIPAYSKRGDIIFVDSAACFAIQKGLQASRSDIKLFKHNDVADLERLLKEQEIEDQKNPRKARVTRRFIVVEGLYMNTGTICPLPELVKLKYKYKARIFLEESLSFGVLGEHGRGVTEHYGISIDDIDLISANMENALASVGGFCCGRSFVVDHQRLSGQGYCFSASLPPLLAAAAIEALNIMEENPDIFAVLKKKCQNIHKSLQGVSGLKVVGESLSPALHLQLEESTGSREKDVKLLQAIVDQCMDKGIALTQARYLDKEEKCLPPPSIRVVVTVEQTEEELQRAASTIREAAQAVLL
T1 sequence (Q8R207 1-71 partner): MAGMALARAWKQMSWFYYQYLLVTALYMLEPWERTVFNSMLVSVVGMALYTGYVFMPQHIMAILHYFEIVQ
Protocol: Liver tissues from each group were homogenized and SPT activity was measured using ^14C-serine and palmitoyl CoA as substrates and thin-layer chromatography (TLC) analysis (K. Gable et al., J. Biol. Chem. 2000;275(11):7597-603). FIGS. 1-A, 1-B, 1-C, 1-D and 1-E. SPT gene expression and enzyme activity. Mice were treated with 0.3 mg/kg/day myriocin for 12 weeks by mixing with Western diet chow. Liver was isolated and total mRNA and cell-free homogenate were prepared. SPT mRNA expression was quantified by quantitative RT-PCR. Expression was described as a ratio of LCB1 (A) or LCB2 (B) mRNA to 18s RNA or to rodent GAPDH RNA (n=5, P>0.05). SPT activity of cell-free homogenate (C) was measured with ^14C-labeled Serine and palmitoyl-coenzyme A as substrates and analyzed by TLC. Relative amounts of 3-ketosphinganine were determined by densitometry scanning. The values reported are mean±SEM (n=3, *P<0.05).

CCCCCCC(=O)CCCCCC/C=C/C[C@@H](O)[C@H](O)[C@@](N)(CO)C(=O)O [myriocin]
effect on plasma TG levels ([1]; 0.1 mg/kg/day): no effect
plasma cholesterol reduction ([1]; 0.1 mg/kg/day, vs no-myriocin control): 46%
plasma TG levels lowered ([1]; 0.3 mg/kg/day): 44%
plasma cholesterol decrease (maximum) ([1]; 0.3 mg/kg/day, vs no-myriocin control): 76%
decrease of SPT activity in the liver ([2]; compared with the C57BI/6J control group): 48%
decrease of SPT activity in the liver ([2]; compared with untreated Western diet-fed ApoE KO mice): 66%
